Experimental data reported in patent US4668725A, “Stabilizing compounds for organic polymers, and stabilized polymer compounds which contain them” (Enichem Sintesi S.p.A., priority 1984, dated 1987).

Key:
[1] = Phenoxy radical formation and stability by ESR after reaction of stabilising compound with benzoyl peroxide in toluene; conditions: 2% by weight each of compound and benzoyl peroxide in toluene; 70° C. for 24 hours, then at rest to ambient temperature
Source text: In the case of stabilising compounds of phenolic nature, phenolic radicals characterised by long life have to form within the polymer in order for the antioxidant activity of the stabilising compound to take effect, and therefore the formation and stability of radicals of this type, originating from the reaction between the stabilising compounds of the present invention and benzoyl peroxide in toluene, are taken as parameters for evaluating the stabilising action of the stabilising compounds concerned.
In particular, in this test, toluene solutions containing 4% by weight of the stabilising compound are prepared simultaneously with solutions containing the same weight percentage of benzoyl peroxide. A small quantity of the stabilising compound solution is then mixed with an equal quantity of the benzoyl peroxide solution.
After mixing, a solution containing 2% by weight of each component is obtained. 1 ml of the resultant solution is then transferred to an ESR (electronic spin resonance) sample tube where it is degassed and sealed under vacuum. The system obtained in this manner is heated to 70° C. for 24 hours. The radical stability is checked by ESR spectra both during the 24 hour heating period and during the subsequent time, in which the system is left at rest to cool to ambient temperature.

[2] = Accelerated oven ageing of polypropylene film: growth of carbonyl index (IR band at 1720 cm^-1); conditions: air circulation oven at 140° C.; 0.1% of the weight of the polymer; 100 μm film; extrapolated to zero carbonyl index; absent stabiliser: 2
Procedure: (§1) Accelerated thermal ageing tests are also carried out on polypropylene stabilised by the stabilising compounds of the present invention, and in particular the following tests are carried out:
measurements of the growth of the carbonyl index on polypropylene film containing the stabilising compound and subjected to thermal treatment; and
In the first case, the carbonyl index is evaluated from the IR spectrum for the film, by measuring the band intensity at 1720 cm^-1, and is defined by the relationship: [formula] where Io is the initial band intensity, It is the intensity at time t and S is the film thickness in μm.
The polypropylene film containing the stabilising compound is prepared by dissolving the stabilising compound in benzene and mixing the resultant solution with powdered polypropylene containing no other additive.
The stabilising compound is added in a quantity of 0.1% of the weight of the polymer. The benzene is then removed by evaporation under reduced pressure, and the residual powder is pressed into a film of 100 μm thickness.
The pressing is carried out at a temperature of 160° C. under a pressure of 900 kg/cm^2 for a time of 5 minutes. The film is extracted from the press and is rapidly cooled under running water.
The film prepared in this manner is then subjected to accelerated ageing in an air circulation oven at 140° C.
(§2) The polypropylene used for the tests is the commercial product Moplen® FL 20F of the Montedison Company.
Time of oven treatment (at 140° C.) required for inducing the formation of the IR band at 1720 cm^-1 in polypropylene films without stabilising compound and with stabilising compound.

[3] = Melt flow index variation of stabilised polypropylene on repeated extrusion; parameters: unit not given here; conditions: ASTM-D1238, 90° C., 2.16 kg/cm^2
Procedure: as §1
measurements of the variation in the melt flow index of the polypropylene containing the stabilising compound and subjected to repeated extrusion.
Finally, the melt flow index variation measurements are carried out on polypropylene powder mixed with the stabilising compound by stirring for 30 minutes in a planetary mixer. The repeated extrusions are carried out in an extruder of 19 mm diameter, of length 25 times its diameter, and provided with a 2 mm nozzle and a screw, the compression ratio being 1:4, the speed being 50 r.p.m. The temperature profile along the extruder is 175° C.; 230° C.; 270° C.; 270° C.
After each extrusion, the filament obtained is cut into granules to be subjected to a new extrusion passage.
At the end of each passage, some of the granules are used for measuring the melt flow index in accordance with ASTM-D1238, operating at 90° C. and at a pressure of 2.16 kg/cm^2.
The melt flow index values after 1, 3, 5 and 7 passages through the extruder are shown for polypropylene stabilised by certain stabilisers according to the present invention in Table 3.
as §2
Melt flow index of polypropylene containing the stabilising compound as a function of the number of successive passages through the extruder.

SMILES	t 1/2: time required to reduce to one half the ESR signal intensity for the phenoxy radicals [1] [h]	t 1/4: time required to reduce to one quarter the ESR signal intensity for the phenoxy radicals [1] [h]	Induction time for the formation of the IR band at 1720 cm^-1 (carbonyl band) in polypropylene films [2] [h]	Melt flow index of polypropylene containing the stabilising compound ([3]; 1 extrusion)	Melt flow index of polypropylene containing the stabilising compound ([3]; 3 extrusions)	Melt flow index of polypropylene containing the stabilising compound ([3]; 5 extrusions)	Melt flow index of polypropylene containing the stabilising compound ([3]; 7 extrusions)
CC(C)(C)c1cc(CCC(=O)Oc2cccc(OC(=O)CCc3cc(C(C)(C)C)c(O)c(C(C)(C)C)c3)c2OC(=O)CCc2cc(C(C)(C)C)c(O)c(C(C)(C)C)c2)cc(C(C)(C)C)c1O [Example 1, benzene-1,2,3-tri[3-(4'-hydroxy-3',5'-di-tert-butylphenyl)propionate]]	20	100	260				
CC(C)(C)c1cc(CCC(=O)Oc2cc(C(=O)O)cc(OC(=O)CCc3cc(C(C)(C)C)c(O)c(C(C)(C)C)c3)c2OC(=O)CCc2cc(C(C)(C)C)c(O)c(C(C)(C)C)c2)cc(C(C)(C)C)c1O [Example 2, benzene-3,4,5-tri[3-(4'-hydroxy-3',5'-di-tert-butylphenyl)propionate]-1-carboxylic acid]			160				
CC(C)(C)c1cc(CCC(=O)OCCOc2ccc(OCCOC(=O)CCc3cc(C(C)(C)C)c(O)c(C(C)(C)C)c3)cc2)cc(C(C)(C)C)c1O [Example 3, 1,4-phenylene-bis-(oxyethylidene)-bis-[3-(4'-hydroxy-3',5'-di-tert-butylphenyl)propionate]]	24	90	575	7.34	9.91	12.59	14.61
CC(C)(C)c1cc(CCC(=O)Nc2ccc(OC(=O)CCc3cc(C(C)(C)C)c(O)c(C(C)(C)C)c3)cc2)cc(C(C)(C)C)c1O [Example 4, phenylene-1-[3-(4'-hydroxy-3',5'-di-tert-butylphenyl)propionate]-4-[3-(4'-hydroxy-3',5'-di-tert-butylphenyl)propionamide]]	15	150		7.42	10.36	13.09	15.78
